Drawing on PubChem BioAssay (NCI), this text covers GI50 and TGI for eight compounds.

Where “and” joins values, the source holds several entries; their conditions need not be identical. Equal values may be shown once.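 Growth conditions: 96-well plates. Treatment: test compound, 48 hours, 5 concentrations. Analysis: linear interpolation between bracketing concentrations; unreached endpoints set to highest concentration. Here, GI50 denotes the concentration required for 50% inhibition of growth. TGI is the concentration that stops growth completely.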 Some results are limits rather than exact numbers.

Test in all cases: inhibition of tumour cell growth, NCI panel, 48 h
For test [1], the system named is 786-0 renal.
The test system of test [2] is A549 NSCLC.
For test [3], the system named is BT-549 breast.
The test system of test [4] is CAKI-1 renal.
In test [5] the test system is CCRF-CEM leukemia.
The subject of test [6] is HCT-15 colon.
In test [7] the test system is K-562 leukemia.
The subject of test [8] is MDA-MB-231 breast.
In test [9] the test system is NCI-H226 lung.
The test system of test [10] is OVCAR-5 ovarian.

As to `CN(CC(=O)N(Cc1ccc(C2CCCCC2)cc1)c1ccc(C(=O)O)c(O)c1)S(=O)(=O)c1c(F)c(F)c(F)c(F)c1F`, the GI50 is 8.88 µM in test [1]; 14.9 µM in [2]; 10.9 µM in [3]; 5.09 µM in [4]; 1.84 µM in test [5]; 2.08 µM in test [6]. Besides, the GI50 in test [7] was 2.05 µM; in [8] it was 1.86 µM; in test [9] it was 18.6 µM; in test [10], 17.5 µM. The TGI in test [1] came out at 23.8 µM; in test [2], 31.7 µM; in [3] it was 23.6 µM; in test [4], 10.4 µM; in [5], 4.69 µM; in [6] it was 4.43 µM. Further, the TGI in test [7] is 4.57 µM; in [8], 4.13 µM; in test [9], 41.5 µM; in test [10], 32.4 µM.
On to `CCCCCCCCCCCC1CCCC(C)N1` (stereo not drawn), for which the GI50 in test [1] was 13.7 µM; in test [2], 13.4 µM; in [3] it was 7.39 µM; in test [4] it was 4.84 µM; in test [5], 1.45 µM; in test [6], 2.85 µM. The GI50 was 1.96 µM in test [7], 3.99 µM in test [8], 16.7 µM in [9] and 12.5 µM in [10]. The TGI was 42.9 µM in test [1]; 32.7 µM and 164 µM in [2]; 22.6 µM in test [3]; 19.5 µM and 116 µM in test [4]; 13.3 µM and 104 µM in [6]; 18 µM in test [8]. Also, the TGI was 36.9 µM and 166 µM in [9]; 28.5 µM and 162 µM in [10].
Regarding `CC1(C)[C@@H](O[C@@H]2OC[C@@H](O[C@@H]3O[C@H](CO)[C@@H](O)[C@H](O)[C@H]3O[C@@H]3OC[C@@H](O)[C@H](O)[C@H]3O)[C@H](O)[C@H]2O[C@@H]2O[C@H](CO)[C@@H](O)[C@H](O)[C@H]2O)CC[C@]2(C)[C@H]3CC[C@]45OC[C@@]6(CC[C@](C)(C=O)C[C@H]64)[C@H](O)C[C@@]5(C)[C@]3(C)CC[C@@H]12`, the GI50 in test [1] was 2.84 µM; in test [2] it was 0.943 µM; in test [3], 1.14 µM; in [4], 0.763 µM; in test [5], 1.02 µM; in test [6], 1.62 µM. For the same compound, the GI50 in [7] is 1.81 µM; in [8], 0.915 µM; in test [9], 0.985 µM; in test [10], 0.834 µM. Moreover, the TGI in test [1] was 5.77 µM; in test [2], 1.95 µM; in test [3], 3.37 µM; in test [4], 1.45 µM; in test [5], 3.13 µM; in test [6], 4.37 µM. Also, the TGI in test [7] was determined as 5.51 µM; in test [8], 1.9 µM; in [9], 2.11 µM; in test [10], 1.66 µM.
For `O=C(O)c1cccc(N=Nc2c(S(=O)(=O)O)ccc3c2C(=O)c2ccccc2C3=O)c1O`, the TGI in test [1], in test [2], in test [3], in [4], in test [5] and in test [6] was greater than 100 µM throughout. For the same compound, the TGI in [7], in [8], in test [9] and in [10] was greater than 100 µM throughout.
As for `C[C@@H](CO)[C@@H]1CCC=C2CC[C@]3(C)[C@H](CC[C@@H]4[C@@]5(C)CCCNC(C)(C)[C@@H]5CC[C@]43C)[C@H]21`, the GI50 in test [1] is 1.93 µM; in test [2], 2.24 µM; in test [3], 5.11 µM; in test [4], 1.89 µM; in test [5], 3.08 µM; in test [6], 1.49 µM. In addition, the GI50 in [7] is 2.01 µM; in test [8], 1.94 µM; in test [9] it was 14.6 µM; in test [10] it was 3.18 µM. Besides, the TGI in [1] was 3.82 µM; in test [2] it was 5.04 µM; in [3], 24.9 µM; in test [4], 4.25 µM; in [5], 13.9 µM; in [6], 2.99 µM. For the same compound, the TGI in test [7] came out at 6.73 µM; in test [8], 4.03 µM; in test [9], 35.3 µM; in test [10] it was 12.6 µM.
On to `O=C(/C=C/c1cc([N+](=O)[O-])ccc1Cl)c1ccccc1`, for which the GI50 was 15.2 µM in [1]; 22 µM in test [2]; 14.5 µM in [3]; 5.32 µM in test [4]; 26.9 µM in test [5]; 8 µM in test [6]. For the same compound, the GI50 in test [7] is 6.66 µM; in test [8], 19.3 µM; in test [9], 15.4 µM; in test [10] it was 23.5 µM. Further, the TGI is 32 µM in test [1]; 92.9 µM in [2]; 27.8 µM in test [3]; 31.3 µM in test [4]; greater than 100 µM in test [5]; 88.2 µM in [6]. Moreover, the TGI in test [7] is greater than 100 µM; in [8], 70.7 µM; in [9] it was 59.3 µM; in [10], 74.2 µM.
Turning to `COc1cc2c(cc1Nc1nc(Nc3ccsc3C(N)=O)c3cc[nH]c3n1)N(C(=O)CN(C)C)CCC2(C)C`, the GI50 in [1] was 3.06 µM; in [2], 0.975 µM; in [3], 2.01 µM; in test [4], 1.37 µM; in [5] it was 0.685 µM; in [6] it was 1.84 µM. The GI50 in test [7] was 1.75 µM; in test [8], 3.22 µM; in test [9], 0.763 µM; in test [10] it was 0.0412 µM. Besides, the TGI in test [1] is 6.82 µM; in [2], 4.69 µM; in [3], 5.6 µM; in [4], 6.69 µM; in test [5] it was 3.78 µM; in test [6], 5.62 µM. The TGI in test [7] came out at 6.47 µM; in test [8], 7.42 µM; in test [9], 4.92 µM; in test [10], 3.67 µM.
`O=C(NP(=O)(N1CC1)N1CC1)c1cc(I)ccc1I`: the TGI in [1] is greater than 100 µM; in test [2], greater than 100 µM; in [3], greater than 100 µM; in [4], greater than 100 µM; in [5], greater than 78.8 µM; in [6], greater than 100 µM. In addition, the TGI in [7], in [8], in test [9] and in [10] was greater than 100 µM in each case.
